Our source for the IC50 values is patent US5063229A, “Imidazolo [1,2-a]pyrimidines and medical use thereof” (Roussel Ulcaf, priority 1986, dated 1991).

The structures appear in SMILES notation.

This experiment relates to rat peritoneal neutrophils. Briefly: Inhibition of ionophore-stimulated release of free arachidonic acid from [14C]-arachidonic acid pre-labelled rat peritoneal neutrophils. As to conditions: read-out: IC50, concentration required to inhibit by 50% compared to controls the release of radiolabelled products into supernatant liquid. The class given is cell-based. From the text:
The inhibition of ionophore-stimulated release of free arachidonic acid from [^14 C]-arachidonic acid pre-labelled rat peritoneal neutrophils was studied using modifications of the method of Ahnfelt-Ronne and Arrigoni-Martelli [Biochemical Pharmacol., (1982) Vol. 31, p. 2619]. The results below show the micromolar concentrations of test compound required to inhibit, by 50% compared to controls, the release of radiolabelled products into supernatant liquid (IC50 -μM).
`C=C(C)C(=O)c1nc2nc(SC)c(CC)c(C)n2c1Br` [Example 1, 1-(3-bromo-6-ethyl-5-methyl-7-methylthio-imidazo[1,2-a]pyrimidin-2-yl)-2-methyl-2-propen-1-one]: the IC50 was 6.8 µM.

In the case of `C=C(C)C(=O)c1nc2nc(OC)c(CC)c(C)n2c1Br` [Example 2, (3-bromo 6-ethyl 7-methoxy 5-methylimidazo [1,2-a]pyrimidin-2-yl) isopropenyl methanone], the IC50 turned out to be 17 µM.

`C=C(C)C(=O)c1nc2nc(OC)c(CC)c(C)n2c1Cl` [Example 3, (3-chloro 6-ethyl 7-methoxy 5-methylimidazo [1,2-a]pyrimidin-2-yl) isopropenyl methanone]: the IC50 stood at 21 µM.

In the case of `C=C(C)C(=O)c1nc2nc(OC)cc(C)n2c1Br` [Example 4], the IC50 turned out to be 7.4 µM.

Regarding `C=CC(=O)c1nc2nc(OC)c(CC)c(C)n2c1Br` [Example 5, (3-bromo 6-ethyl 7-methoxy 5-methylimidazo [1,2-a]pyrimidin-2-yl) ethenyl methanone], the IC50 was 1.7 µM.

With `C=C(C)C(=O)c1cn(-c2ccc(CC)cc2)c(SC)n1` [Example 6, [1-(4-ethylphenyl) 2-imidazol-4-yl] isopropenyl methanone], the IC50 came to 3.8 µM.

Regarding `C=C(C)C(=O)c1nc(SC)n(-c2ccc(CC)cc2)c1Br` [Example 7, [1-(4-ethylphenyl) 5-bromo 2-thiomethylimidazol-4-yl] isopropenyl methanone], the IC50 came to 2.5 µM.

For `C=C(C)C(=O)c1nc(SC)n(-c2ccc(OC)cc2)c1Br` [Example 8, [1-(4-methoxyphenyl) 5-bromo 2-thiomethylimidazol-4-yl] isopropenyl methanone], the IC50 amounted to 7.2 µM.

Consider `C=C(C)C(=O)c1nc(SC)n(-c2ccc(OC)cc2)c1Cl` [Example 9, [1-(4-methoxyphenyl) 5-chloro 2-thiomethylimidazol-4-yl] isopropenyl methanone], for which the IC50 was 9.1 µM.

As for `C=C(C)C(=O)c1nc(SC)n(-c2ccc(C)cc2)c1Br` [Example 10, [1-(4-methylphenyl) 5-bromo 2-thiomethylimidazol-4-yl] isopropenyl methanone], the IC50 came to 10 µM.

With `C=C(C)C(=O)c1nc(SC(C)C)n(-c2ccc(C)cc2)c1Br` [Example 11, [1-(4-methylphenyl) 5-bromo 2-thioisopropylimidazol-4-yl] isopropenyl methanone], the IC50 was found to be 3.7 µM.

For the molecule `C=C(C)C(=O)c1nc(SC)n(-c2ccc(F)cc2)c1Br` [Example 12, [1-(4-fluorophenyl) 5-bromo 2-thiomethylimidazol-4-yl] isopropenyl methanone], the IC50 was 15 µM.

For `C=CC(=O)c1nc(SC)n(-c2ccc(OC)cc2)c1Br` [Example 13, [1-(4-methoxyphenyl) 5-bromo 2-thiomethylimidazol-4-yl] ethenyl methanone], the IC50 was determined as 2.3 µM.

Regarding `C=C(C)C(=O)c1nc(SC)n(-c2ccc(O)cc2)c1Br` [Example 14, [5-bromo-1-(4-hydroxyphenyl)-2-methylthioimidazol-4-yl]-2-methyl-2-propen-1-one], the IC50 was > 10 µM.

With `C=C(C)C(=O)c1nc(SC(C)C)n(CC)c1Br` [Example 15, (1-ethyl 5-bromo 2-thioisopropyl imidazol-4-yl) isopropenyl methanone], the IC50 was 17 µM.

Consider `C=C(C)C(=O)c1nc([S+]([O-])C(C)C)n(-c2ccc(CC)cc2)c1Cl` (stereo not drawn) [Example 16, [5-chloro-1-(4-ethylphenyl)-2-(prop-2-ylsulfinyl)-imidazol-4-yl]-2-methyl-2-propen-1-one], for which the IC50 amounted to 4.4 µM.

As to `CCc1c(OC)nc2nc(C(=O)C#Cc3ccccc3)cn2c1C` [Example 18, (6-ethyl 7-methoxy 5-methylimidazo [1,2-a]pyrimidin-2-yl) phenylethynyl methanone], the IC50 is 12 µM.

Take `CCc1c(OC)nc2nc(C(=O)C#CC(C)(C)C)cn2c1C` [Example 19, 1-(6-ethyl 7-methoxy 5-methylimidazo [1,2-a]pyrimidin-2-yl) (3,3-dimethylbut-1-ynyl) methanone]: the IC50 was determined as 16 µM.

In the case of `CCc1c(OC)nc2nc(C(=O)C#CC(C)(C)C)c(Br)n2c1C` [Example 20, (3-bromo 6-ethyl 7-methoxy 5-methylimidazo [1,2-a]pyrimidin-2-yl) (3,3-dimethylbut-1-ynyl) methanone], the IC50 came out at 4.2 µM.

Turning to `CCc1c(OC)nc2nc(C(=O)C#Cc3ccccc3)c(Br)n2c1C` [Example 21, (3-bromo 6-ethyl 7-methoxy 5-methylimidazo [1,2-a]pyrimidin-2-yl) (2-phenylethy-1-yl) methanone], the IC50 turned out to be 1.5 µM.

Take `CCc1c(OC)nc2nc(C(=O)C#CCO)c(Br)n2c1C` [Example 22, 1-(3-bromo-6-ethyl-7-methoxy-5-methyl-imidazo[1,2-a]pyrimidin-2-yl)-4-hydroxy-2-butyn-1-one]: the IC50 is 59 µM.

In the case of `CCc1c(OC)nc2nc(C(=O)C#CCO)cn2c1C` [Example 23, 1-(6-ethyl-7-methoxy-5-methylimidazo[1,2-a]pyrimidin-2-yl)-4-hydroxy-2-butyn-1-one], the IC50 came to 46 µM.

As to `CC#CC(=O)c1nc2nc(OC)c(CC)c(C)n2c1Br` [Example 24, (3-bromo 6-ethyl 7-methoxy 5-methylimidazo [1,2-a]pyrimidin-2-yl) (propyn-1-ynyl) methanone], the IC50 stood at 7.2 µM.

Consider `C=C(C)C(=O)c1nc2ccccn2c1Br` [Example 25, (3-bromoimidazo [1,2-a]pyridin-2-yl) isopropenyl methanone (chlorhydrate)], for which the IC50 was determined as 28 µM.

In the case of `C=C(C)C(=O)c1cn2ccccc2n1` [Example 26, (imidazo [1,2-a]pyridin-2-yl) isopropenyl methanone], the IC50 was > 100 µM.

Regarding `O=C(C#Cc1ccccc1)c1cn2ccccc2n1` [Example 27, (imidazo [1,2-a]pyridin-2-yl) (2-phenylethyn-1-yl) methanone], the IC50 came to 41 µM.

For `O=C(C#Cc1ccccc1)c1nc2ccccn2c1Br` [Example 28, 3-bromoimidazo [1,2-a] pyridin-2-yl (2-phenylethyn-1-yl) methanone], the IC50 worked out at 5.2 µM.
